The source of these data is paper PMC7409302 (Cancers, 2020).

The target in the assay is T1, androgen receptor (AR) (Homo sapiens, UniProt P10275, T878A).
T1 construct: endogenous full-length AR in LNCaP cells
T1 sequence (P10275 1-920 T878A): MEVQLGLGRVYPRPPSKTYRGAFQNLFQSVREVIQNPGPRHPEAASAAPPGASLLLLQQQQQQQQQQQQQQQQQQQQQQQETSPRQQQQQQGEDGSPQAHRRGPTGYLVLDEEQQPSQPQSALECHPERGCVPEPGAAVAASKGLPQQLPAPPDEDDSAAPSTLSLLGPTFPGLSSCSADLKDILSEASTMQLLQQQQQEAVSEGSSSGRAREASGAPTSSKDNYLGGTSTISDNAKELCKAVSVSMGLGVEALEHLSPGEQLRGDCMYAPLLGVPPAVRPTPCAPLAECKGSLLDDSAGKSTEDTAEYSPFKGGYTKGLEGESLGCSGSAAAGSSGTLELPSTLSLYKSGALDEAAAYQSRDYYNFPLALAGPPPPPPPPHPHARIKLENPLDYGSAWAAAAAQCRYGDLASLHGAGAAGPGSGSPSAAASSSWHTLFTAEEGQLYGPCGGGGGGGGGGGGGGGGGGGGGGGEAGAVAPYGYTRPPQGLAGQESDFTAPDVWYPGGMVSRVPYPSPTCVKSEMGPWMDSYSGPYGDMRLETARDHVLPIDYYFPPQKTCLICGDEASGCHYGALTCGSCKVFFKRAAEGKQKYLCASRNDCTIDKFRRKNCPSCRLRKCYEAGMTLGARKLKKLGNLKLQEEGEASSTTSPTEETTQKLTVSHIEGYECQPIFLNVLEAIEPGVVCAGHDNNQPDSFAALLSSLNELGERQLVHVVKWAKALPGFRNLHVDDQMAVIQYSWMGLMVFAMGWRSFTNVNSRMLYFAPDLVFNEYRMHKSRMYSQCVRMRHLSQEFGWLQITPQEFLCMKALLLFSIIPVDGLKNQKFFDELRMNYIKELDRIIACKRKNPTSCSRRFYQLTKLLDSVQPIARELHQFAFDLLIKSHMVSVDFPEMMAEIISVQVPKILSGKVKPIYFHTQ
The assay can be described thus: androgen (R1881)-induced PSA([…].1kb)-luciferase reporter in LNCaP cells. It counts as cell-based. (Reporter assays use an easily measured gene product as a stand-in for the process of interest.)

Turning to `CC(C)(c1ccc(OC[C@H](O)CNS(C)(=O)=O)cc1)c1cc(Cl)c(OC[C@H](O)CCl)c(Cl)c1` [EPI-7170], the IC50 is 1.08 ± 0.55 µM.

For orientation: IC50 means the concentration at which inhibition is half-maximal.
